Assay [1] has as its system Human lung fibroblasts (hLFB). In words: CXCL10 qPCR, 2,3-cGAMP +/- heparin. The class given is cell-based. Conditions: 2,3-cGAMP 1 μg/mL, 24 hours. How it is done: FIG. 2 includes plots showing that heparin enhances STING agonist activity. FIG. 2A includes plots showing human lung fibroblasts (hLFB) and H69-mesenchymal (H69M) small cell lung cancer (SCLC) cells treated with 2,3-cGAMP 1 μg/mL+/−heparin 1 μg/mL for 24 hours prior to CXCL10 qPCR and collection of conditioned media for C—X—C motif chemokine 10 (CXCL10) ELISA (enzyme-linked immunosorbent assay). […] THP1=differentiated macrophages. hLFB=human lung fibroblasts. MEF=mouse embryonic fibroblasts. HUE=human umbilical endothelial cells. ANOVA p<0.001 for all figures. *p<0.05 ****p<0.0001 by Bonferroni corrected pairwise comparison.
Also, Human lung fibroblasts (hLFB) were treated with 2,3-cGAMP 1 μg/mL (hereafter referred to as “cGAMP)+/−heparin 1 μg/mL for 24 hours prior to CXCL10 qPCR and collection of conditioned media for CXCL10 ELISA (FIG. 2A).
RNA extraction was performed using the RNeasy Mini Kit (Qiagen, Cat. #74106). RNA samples (1000 ng) were reverse-transcribed into cDNA using Superscript® First-Strand Synthesis SuperMix (Thermo Fisher Scientific, Cat. #1683483). Quantitative real-time PCR was then performed using Power SYBR Green PCR Master Mix (Thermo Fisher Scientific, Cat. #4367659). The sequences of the primers used for qRT-PCR were obtained from previously published literature. Error bars represent technical replicates of each experiment.

Assay [2] deals with 631M/RPPM mouse SCLC cells. Put plainly: CXCL10 ELISA of conditioned media, STING agonists +/- heparins. Conditions: for interaction between heparin and STING agonist (CXCL10 ELISA): 24 hours, p<0.0001 by 2-WAY ANOVA (FIG. 3C); for interaction between heparin and STING agonist on the amount of CXCL10 in the media: +/- 1 μg/mL heparin, 1 or 10 μg/mL cGAMP, 50 μM ADU, 0.2 mg/ml CMA, 24 hours (FIG. 3A). The class given is cell-based. How it is done: (§1) 1 mL of conditioned media from each treatment plate was collected after 24 hr culture unless otherwise specified. The collected media was centrifuged at 1400 RPM for 3 minutes to remove any cellular debris before use in the ELISA. Values represent the average of at least two independent biological replicates.
For orientation: ELISA stands for enzyme-linked immunosorbent assay.

The test system of assay [3] is BEN-MEN-1 meningioma cells. In words: CXCL10 ELISA of conditioned media, ADU S-100 dose and time course +/- heparin. The class given is cell-based. Particulars: 50 μg/mL and 100 μg/mL ADU-S100, heparin 10 μg/mL, 24 hours. How it is done: FIGS. 3A to 3B include plots showing that heparin dose-dependently enhances STING agonist effects across compounds. […] FIG. 3D includes a plot of showing the time course data for BenMen 1 cells with treatment for 3 and 6 days. The data reflects 24 hours treatment prior to collection of conditioned media for CXCL10 ELISA FIG. 3E includes plots showing RPPM mouse SCLC cells treated with 1 μg/mL 2,3-cGAMP and 1 μg/mL unfractionated heparin, low-molecular weight heparin (LMWH), heparin pentasaccharide fondaparinux, 6-desulfated heparin, chondroitin sulfate (CS)+/−the Janus kinase/signal transducers and activators of transcription (JAK/STAT) inhibitor ruxolitinib (ruxo 1 μg/mL) for 24 hours prior to CXCL10 ELISA. H69M human SCLC cells treated with 10 μg/mL 2,3-cGAMP+/−heparin 10 μg/mL or desulfated heparins 2-O desulfated (2DES), N-desulfated (NDES), and 6-O desulfated (6DES) 24 hours prior to CXCL10 ELISA. All panels reflect 24 hours treatment prior to collection of conditioned media for CXCL10 ELISA.
A 24-hour dose response study was also conducted on BEN-MEN-1 meningioma cells (hereafter “BenMen 1 cells”) and RPPM mouse SCLC cells. BenMen 1 cells were treated with various doses of ADU S-100 (0, 10, 20, 30, 50, and 100 μg/mL) either in the presence or absence of heparin (10 μg/mL). […]

In assay [4] the test system is H196 SCLC and MS428 meningioma cells. In words: Luminex cytokine array. The class given is cell-based, human. Conditions: 5 μM MRT TBK1 inhibitor. How it is done:
FIGS. 19A to 19B includes diagrams showing that heparin alters the release of multiple cytokines after STING agonist treatment. […] L2FC=LOG2 fold change.
The influence of heparin (with and without a STING agonist) on IL-6 and IL-8 levels was examined. […] This effect was reversed by MRT TBK1 inhibitor.
Multiplex assays were performed utilizing the Human Cytokine/Chemokine Maganetic Bead Panel (Cat. #HCYTMAG-60K-PX30) on a Luminex MAGPIX system (Merck Millipore). Conditioned media concentrations (pg/ml) for each cytokine were derived from parameter curve fitting models. Fold changes relative to the corresponding control were calculated and plotted as log 2FC.

For assay [5], the system named is BenMen 1 cells; RPPM mouse SCLC and MS428 human mesothelioma cell lines. Put plainly: STING pathway western blot and CXCL10 ELISA with TBK1 or JAK/STAT inhibitor. The class given is cell-based. Conditions: MRT TBK1 inhibitor 1 μM or 5 μM; ruxolitinib 1 μM. The protocol: FIG. 4A includes immunofluorescent images of fixed hLFB cells after 24 hours of treatment with cyanine-5 (Cy5) labeled 2,3-cGAMP 1 μg/mL+/−heparin 1 μg/mL. The staining represents actin phalloidin, DAPI (4′,6-diamidino-2-phenylindole), and Cy5-labeled cGAMP. FIG. 4B includes a western blot for STING pathway components in BEN-MEN-1 meningioma cells treated for 72 hours with 50 μM ADU+/−heparin 10 μg/mL and MRT TANK-binding kinase-1 (TBK1) inhibitor 5 μM. FIG. 4C includes plots showing CXCL10 ELISA after 24 hours treatment with 2,3-cGAMP (1 μg/mL) or ADU S-100 (50 μM unless otherwise indicated)+/−heparin (1 μg/mL in RPPM or 10 μg/mL in MS428), MRT TBK1 inhibitor 1 μM, or ruxolitinib JAK/STAT inhibitor (“ruxo”; ruxolitinib) 1 μM in RPPM mouse SCLC and MS428 human mesothelioma cell lines. FIG. 4D includes a plot showing the qPCR for Programmed death-ligand 1 (PD-L1) after 24 hours treatment 50 μM ADU+/−heparin 10 μg/mL and MRT TBK1 inhibitor in BEN-MEN-1 meningioma cells. ANOVA p<0.001 for all graphs. *p<0.05 ****p<0.0001 by Bonferroni corrected pairwise comparison.
The serine/threonine protein kinase, TBK1, is a critical regulator in innate immune signaling pathways that lead to the induction of type I interferon (IFN) and interferon-stimulated genes (ISGs). Dysregulation of TBK1 activity is often associated with autoimmune diseases and cancer. […]

For assay [6], the system named is B16F10 mouse melanoma cells; Lewis Lung Carcinoma (LLC) mouse non-small-cell lung cancer cells. Put plainly: CXCL10 ELISA of conditioned media, interferons +/- heparin. Conditions: interferon 5 ng/mL +/- heparin 1 μg/mL, 24 hours. The class given is cell-based. How it is done:
as §1

cyclic GMP-AMP [cGAMP]: in assay [1], the “STING activity (CXCL10 expression, qPCR), cGAMP in the absence of heparin” value was “negligible STING activity”. Also, in assay [2], the “interaction between heparin and STING agonist (CXCL10 ELISA)” value is given as “significant interaction”; the “interaction between heparin and STING agonist on the amount of CXCL10 in the media” value is “significant interaction”.

For `Nc1ncnc2c1ncn2[C@@H]1O[C@@H]2CO[P@](=O)(S)O[C@@H]3C(O)[C@@H](CO[P@@](=O)(S)O[C@H]2[C@H]1O)O[C@H]3n1cnc2c(N)ncnc21` (stereo partly drawn) [ADU-S100], in assay [3], the “STING activity (CXCL10 concentration) in the presence vs absence of heparin” value is recorded as “significantly higher STING activity”. In addition, in assay [2], the “interaction between heparin and STING agonist (CXCL10 ELISA)” value is recorded as “significant interaction”; the “interaction between heparin and STING agonist on the amount of CXCL10 in the media” value is given as “significant interaction”.

In the case of `O=C(NCCCNc1nc(Nc2cccc(CN3CCOCC3)c2)ncc1C1CC1)C1CCC1` [MRT TBK1 inhibitor, MRT67307], the “effect of heparin plus ADU on cytokines after TBK1 inhibitor” value in assay [4] is “reversed”. In addition, the “STING activity after addition of inhibitor to heparin and ADU” value in assay [5] was “reduced the STING activity”.

On to IFNg: interferon gamma (R&D systems), for which the “amount of CXCL10 in the media with heparin compared to interferon alone” value in assay [6] is listed as “not seen”.
